Test results taken from patent US6410790B1, “3-amin3-arylpropan-1-ol compounds, their preparation and use” (priority 1999, dated 2002).

What was measured:
[1] = tested on: phenylquinone-induced writhing reaction; assay: phenylquinone-induced writhing test in mice; format: in vivo; conditions: male NMRI mice, phenylquinone i.p. 10 minutes later; for inhibition in vivo at 10 mg/kg: Mus musculus, iv, 10 min, 10 mg/kg intravenously
Description: Analgesic Effect in the Writhing Test in Mice
The analgesic effect was investigated in the phenylquinone-induced writhing test in mice (as modified by I. C. Hendershot and J. Forsaith (1959) J. Pharmacol. Exp. Ther. 125, 237-240). Male NMRI mice weighing 25 to 30 g were used for the test. Groups of 10 animals each received by intraperitoineal application, for each substance dose, 0.3 ml/mouse of a 0.02% aqueous solution of phenylquinone (phenylbenzoquinone, Sigma Company, Deisenhofen; solution prepared with addition of 5% of ethanol and kept in a water bath at 45° C.) 10 minutes after intravenous administration of the test substances. The animals were placed individually in observation cages. The number of pain-induced stretching movements (so-called writhing reactions=straightening of the body together with stretching of the rear extremities) was measured by means of a push-button counter 5 to 20 minutes after administration of the phenylquinone. Animals that had received only physiological saline solution served as controls. All substances were tested in the standard dose of 10 mg/kg. The percentage inhibition (% inhibition) of the writhing reaction produced by a substance was calculated according to the following formula: [formula]

[2] = biological target: T1, NA transporter (Rattus norvegicus, UniProt Q63380); assay: synaptosomal noradrenaline uptake inhibition (NA uptake inhibition); format: biochemical; conditions: for inhibition at 1 µM: read-out: NA Uptake Inhibition at 1 μM, 1 μM in the assay, synaptosomes from rat hypothalamus; for NA Uptake Inhibition at 1 μM: 1 μM in the assay, synaptosomes from rat hypothalamus
T1 construct: synaptosomes are isolated fresh from rat brains; from tissue; host or cells: rat hypothalamus synaptosomes (P2 fraction)
Description: In order to carry out these in vitro studies, synaptosomes are isolated fresh from rat brains. In each case a so-called “P2” fraction is used, which is prepared according to the protocol of Gray and Whittaker (E. G. Gray and V. P. Whittaker (1962) J. Anat. 76, 79-88).
(in each case N=4, i.e. mean values±SEM from 4 independent series of experiments that were carried out in the form of triple parallel experiments).
(§1) For this purpose IC50 values are obtained, which can be converted to inhibitor constants (Ki) according to the “Cheng-Prusoff equation” (Y. C. Clieng and W. H. Prusoff (1973) Biochem. Pharmacol. 22, 3099-3108). The IC50 values were obtained by means of the computer program “Figure P” (version 6.0, Biosoft, Cambridge, England). Km values were calculated according to Lineweaver and Burk (H. Lineweaver and D. Burk (1934) J. Am. Chem. Soc. 56, 658-666). The “Ligand” computer program (version 4, Biosoft, England) was used to obtain Ken values.

[3] = tested on: binding site 2 of the sodium channel; assay: BTX binding, sodium channel; conditions: 10 μM, percentage inhibition, [3H]-batrachotoxin A20 α-benzoate 10 nM, rat cerebral cortex synaptosomes
Description: Binding Investigations in the Sodium Channel
Binding Site 2 (BTX Binding)
The binding site 2 of the sodium channel is the so-called batrachotoxin (BTX) binding site. [^3H]-batrachlotoxin A20 α-benzoate (10 nM in the assay) was used as ligand. These ion channel particles (synaptosomes) were concentrated from rat cerebral cortex according to the procedure of Gray and Whittaker (E. G. Gray and V. P. Whittaker (1962) J. Anat. 76, 79-88). The radioactivity that is measured in the presence of veratridine (0.3 mM in the assay) is defined as non-specific binding. The material was incubated at 37° C. for 120 minutes. The assay conditions are carried out according to the protocol published by Pauwels, Leysen and Laduron (P. J. Pauwels, J. E. Leysen and P. M. Laduron (1986) Eur. J. Pharmacol. 124, 291-298).
(N=3, i.e. mean values±SEM from 3 independent series of experiments that were carried out in the form of triple parallel experiments).
as §1

[4] = tested on: benzothiazepine binding site of the L-type calcium channel; assay: Diltiazem binding, L calcium channel; parameters: species or system rat; conditions: 10 μM, percentage inhibition, [3H]-cis-(+)-diltiazem 5 nM, rat cerebral cortex membranes
Description: Binding Investigations in the L Calcium Channel
Benzothiazepine Binding Site (Diltiazem Binding)
The biological membrane material was isolated from the rat cerebral cortex. [^3H]-cis-(+)-diltiazem (5 nM in the assay) was used as ligand. The material was incubated for 20 minutes at 25° C. The radioactivity that is measured in the presence of (±)-diltiazem (10^−6 M in the assay) is defined as non-specific binding. After completion of incubation the non-bound fraction of the radioactive ligand is separated by means of a filtration process using Whatman Glasfiber GF/B membranes. The membranes are washed and the radioactivity is then measured using a β-counter. The method is based on the details published by Schoemaker and Langer (H. Schoemaker and S. Z. Langer (1985) Eur. J. Pharmacol. 111, 273-277).
as §1

T1 sequence (Q63380 1-617): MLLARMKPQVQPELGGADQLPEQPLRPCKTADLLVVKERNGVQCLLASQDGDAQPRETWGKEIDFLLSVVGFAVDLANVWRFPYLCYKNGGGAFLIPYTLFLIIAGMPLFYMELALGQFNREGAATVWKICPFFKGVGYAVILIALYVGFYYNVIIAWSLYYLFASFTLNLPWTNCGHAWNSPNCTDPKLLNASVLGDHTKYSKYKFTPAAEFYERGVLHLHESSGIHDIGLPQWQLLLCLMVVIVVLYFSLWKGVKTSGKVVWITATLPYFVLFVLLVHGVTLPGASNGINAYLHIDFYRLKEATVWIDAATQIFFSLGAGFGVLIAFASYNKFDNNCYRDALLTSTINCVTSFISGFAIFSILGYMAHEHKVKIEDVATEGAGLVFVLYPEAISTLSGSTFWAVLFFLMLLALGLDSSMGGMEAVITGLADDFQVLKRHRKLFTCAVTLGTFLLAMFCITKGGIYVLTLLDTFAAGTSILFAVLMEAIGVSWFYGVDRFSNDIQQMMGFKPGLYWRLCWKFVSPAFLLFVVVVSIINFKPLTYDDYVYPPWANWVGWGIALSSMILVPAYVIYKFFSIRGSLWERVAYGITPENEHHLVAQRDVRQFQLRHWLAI

| SMILES | inhibition in vivo at 10 mg/kg [1] [%] | inhibition at 1 µM [2] [%] | BTX Binding at 10 μM [3] [%] | Diltiazem Binding at 10 μM [4] [%] | % Inhibition of the writhing reaction at 10 mg/kg intravenously [1] [%] | NA Uptake Inhibition at 1 μM [2] [%] |
| --- | --- | --- | --- | --- | --- | --- |
| CN(C)C(c1ccc(F)cc1)C1CCCCC1(O)Cc1ccccc1.Cl (centres unmarked) [Example 41, 1-benzyl-2-[dimethylamino-(4-fluorophenyl)methyl]cyclohexanol, hydrochloride] | 88 | 100 | 94 | 87 | – | – |
| CN(C)C(c1cccc(Cl)c1)C1CCCCC1(O)c1ccccc1.Cl (centres unmarked) [Example 42] | – | – | 89 | 50 | 76 | 82 |
| CN(C)CC1CCCCC1(O)c1ccc(Cl)cc1Cl.Cl (centres unmarked) [Example 43, 1-(2,4-dichlorophenyl)-2-(3-dimethylaminomethyl)-1-cyclohexanol, hydrochloride] | – | – | 94 | 73 | 80 | 14 |
| CN(C)C(c1cccc(Cl)c1)C1CCCCC1(O)Cc1ccccc1.Cl (centres unmarked) [Example 44, 1-benzyl-2-[(3-chlorophenyl)dimethylaminomethyl]cyclohexanol, hydrochloride] | 100 | 99 | 95 | 71 | – | – |
| CN(C)C(c1ccccc1Cl)C1CCCCC1(O)Cc1ccccc1.Cl (centres unmarked) [Example 45, 1-benzyl-2-[(2-chlorophenyl)dimethylaminomethyl]cyclohexanol, hydrochloride] | 82 | 89 | 96 | 67 | – | – |
| CN(C)C(c1ccc(Cl)c(Cl)c1)C1CCCCC1(O)Cc1ccc(C(C)(C)C)cc1.Cl (centres unmarked) [Example 46, 1-(4-tert.-butylbenzyl)-2-[(3,4-dichlorophenyl)dimethylaminomethyl]cyclohexanol, hydrochloride] | 68 | 35 | 96 | 93 | – | – |
| CN(C)C(c1ccc(F)cc1)C1CCCCC1(O)Cc1cccc(C(F)(F)F)c1.Cl (centres unmarked) [Example 47, 2-[dimethylamino-(4-fluorophenyl)methyl]-1-(3-trifluoromethylbenzyl)cyclohexanol, hydrochloride] | 89 | 100 | 100 | 84 | – | – |
| CN(C)C(c1ccccc1)C1CCCCC1(O)C1CCCCC1.Cl (centres unmarked) [Example 48, 2-(dimethylaminophenylmethyl)bicyclohexyl-1-ol, hydrochloride] | 94 | 29 | 96 | 86 | – | – |
| COc1ccc(CC2(O)CCCCC2C(c2ccccc2)N(C)C)cc1.Cl (centres unmarked) [Example 49, 2-(dimethylaminophenylmethyl)-1-(4-methoxybenzyl)cyclohexanol, hydrochloride] | 100 | 100 | 90 | 93 | – | – |
| CN(C)C(c1ccccc1)C1CCCCC1(O)Cc1ccc(F)cc1F.Cl (centres unmarked) [Example 50, 1-(2,4-difluorobenzyl)-2-(dimethylaminophenylmethyl)cyclohexanol, hydrochloride] | 85 | 100 | 95 | 93 | – | – |
| CN(C)C(c1cccc(Cl)c1)C1CCCCC1(O)Cc1ccc(C(C)(C)C)cc1.Cl (centres unmarked) [Example 51, 1-(4-tert.-butylbenzyl)-2-[(3-chlorophenyl)dimethylaminomethyl]cyclohexanol, hydrochloride] | 99 | 10 | 99 | 77 | – | – |
| CN(C)C(c1cccc(Oc2ccccc2)c1)C1CCCCC1(O)CCc1ccccc1.Cl (centres unmarked) [Example 52, 2-[dimethylamino-(3-phenoxyphenyl)methyl]-1-phenethylcyclohexanol, hydrochloride] | 70 | 38 | 99 | 98 | – | – |
| CN(C)C(c1cccc(Oc2ccccc2)c1)C1CCCCC1(O)Cc1cccc(C(F)(F)F)c1.Cl (centres unmarked) [Example 53, 2-[dimethylamino-(3-phenoxyphenyl)methyl]-1-(3-trifluoromethylbenzyl)cyclohexanol, hydrochloride] | 90 | 49 | 97 | 92 | – | – |
| CN(C)C(c1ccccc1)C1CCCCC1(O)Cc1cc(F)ccc1F.Cl (centres unmarked) [Example 54, 1-(2,5-difluorobenzyl)-2-(dimethylaminophenylmethyl)cyclohexanol, hydrochloride] | 98 | 96 | 98 | 76 | – | – |
| CN(C)C(c1ccccc1)C1CCCCC1(O)Cc1ccc(F)c(F)c1.Cl (centres unmarked) [Example 55, 1-(3,4-difluorobenzyl)-2-(dimethylaminophenylmethyl)cyclohexanol, hydrochloride] | 92 | 38 | 94 | 76 | – | – |
| CN(C)C(c1ccccc1)C1CCCCC1(O)Cc1c(F)cccc1Cl.Cl (centres unmarked) [Example 56, 1-(2-chloro-6-fluorobenzyl)-2-(dimethylaminophenylmethyl)cyclohexanol, hydrochloride] | 94 | 92 | 99 | 88 | – | – |
| CN(C)C(c1ccccc1)C1CCCCC1(O)Cc1cccc(F)c1F.Cl (centres unmarked) [Example 57, 1-(2,3-difluorobenzyl)-2-(dimethylaminophenylmethyl)cyclohexanol, hydrochloride] | 84 | 99 | 97 | 83 | – | – |
| CN(C)C(c1ccc(Cl)cc1)C1CCCCC1(O)Cc1ccccc1.Cl (centres unmarked) [Example 58, 1-benzyl-2-[(4-chlorophenyl)dimethylaminomethyl]cyclohexanol, hydrochloride] | 98 | 0 | 100 | 80 | – | – |
| CCC(O)(CCc1ccccc1)C(C)C(c1ccccc1)N(C)C.Cl (centres unmarked) [Example 59, 1-dimethylamino-3-ethyl-2-methyl-1,5-diphenylpentan-3-ol, hydrochloride] | 59 | 26 | 86 | 64 | – | – |
| CN(C)C(c1ccccc1Cl)C1CCCCC1(O)Cc1ccccc1Cl.Cl (centres unmarked) [Example 60, 1-(2-chlorobenzyl)-2-[(2-chlorophenyl)dimethylaminomethyl]cyclohexanol, hydrochloride] | 63 | 56 | 95 | 79 | – | – |
